Data taken from patent publication US7390910B2, “Compounds for treating tumors” (priority 2003, dated 2008).
Marks after values point to notes of the source that are not given here.

Legend:
[1] = test system: bovine microtubule-associated protein (MAP)-rich tubulin; assay type: biochemical
Description: Tubulin Polymerization Assays. For in vitro tubulin polymerization assays, bovine microtubule-associated protein (MAP)-rich tubulin, PEM buffer [80 mM Na-PIPES (pH 6.9), 1 mM MgCl2, and 1 mM EGTA], and GTP are purchased from Cytoskeleton (Denver, Colo.). MAP-rich tubulin (final concentration 1.5 mg/ml) is dissolved in cold PEM buffer containing 1 mM GTP (GPEM) and centrifuged at 12,000×g for 10 min at 4° C. The tubulin solution (100 μl/well) is added rapidly to wells of a low-volume, 96-well plate already containing duplicate aliquots (10 μl) of test compounds in GPEM. […] Control wells contained the same final concentration of DMSO (0.3%). After initiation of the reaction, absorbance at 340 nm is measured every minute for 60 min at 24° C. using a SpectraMax Plus plate reader (Molecular Devices, Sunnyvale, Calif.).

KB85 = experiment: cells; assay type: cell-based; conditions: for IC50: 3 days, SRB; for inhibition at 3 µM: 3000 nM
Description: (§1) Cell Survival Assay: Standard Pharmacological Test Procedure. […] Compounds are incubated with cells for 3 days.

KBV1 = experiment: cells; assay type: cell-based; conditions: for inhibition at 3 µM: KB-V1, 3000 nM; for IC50: 3 days, SRB
Description: as §1

KB cells = experiment: cells; assay type: cell-based; conditions: for IC50: 3 days, SRB; for inhibition at 3 µM: 3000 nM
Description: as §1

Row | Compound | Tubulin Polym. % inhibition at 0.3 uM [1] | IC50 (KB85; 72 h) [nM] | inhibition at 3 µM (KBV1; Homo sapiens) [%] | IC50 (KB cells; Homo sapiens, KB, 72 h) [nM] | IC50 (KBV1; Homo sapiens, KB-V1, 72 h) [nM] | inhibition at 3 µM (KB85) [%] | inhibition at 3 µM (KB cells; Homo sapiens, 72 h) [%] | IC50 (KB85) [nM] | IC50 (KBV1) [nM] | IC50 (KB cells) [nM] | Tubulin Polym. % inhibition at 0.5 uM ([1]; 0.5 uM)
1 | CN[C@H](C(=O)N[C@H](C(=O)N(C)[C@H](/C=C(\C)C(=O)N1CCN(CCCN(C)C)CC1)C(C)C)C(C)(C)C)C(C)(C)c1ccccc1 [Example 38, N,β,β-trimethyl-L-phenylalanyl-N^1-((1S,2E)-4-{4-[3-(dimethylamino)propyl]piperazin-1-yl}-1-isopropyl-3-methyl-4-oxobut-2-enyl)-N^1,3-dimethyl-L-valinamide] | 75% | 529 | 0 | 20 | – | – | – | – | – | – | –
2 | CN[C@H](C(=O)N[C@H](C(=O)N(C)[C@H](/C=C(\C)C(=O)N1CCN(C)CC1)C(C)C)C(C)(C)C)C(C)(C)c1cc(C)cc(C)c1 [Example 8, N,β,β,3,5-Pentamethyl-L-phenylalanyl-N^1-[(1S,2E)-1-isopropyl-3-methyl-4-(4-methylpiperazin-1-yl)-4-oxobut-2-enyl]-N^1,3-dimethyl-L-valinamide] | 68% | 56 | – | 35 | 1620 | – | – | – | – | – | –
3 | CN[C@H](C(=O)N[C@H](C(=O)N(C)[C@H](/C=C(\C)C(=O)N1CC=C[C@H]1C(=O)OC)C(C)C)C(C)(C)C)C(C)(C)c1ccccc1 [Example 47, N,β,β-trimethyl-L-phenylalanyl-N^1-{(1S,2E)-1-isopropyl-4-[(2S)-2-(methoxycarbonyl)-2,5-dihydro-1H-pyrrol-1-yl]-3-methyl-4-oxobut-2-enyl}-N^1,3-dimethyl-L-valinamide] | 88(2) % | 17 | – | 3.5 | 272 | – | – | – | – | – | –
4 | CN[C@H](C(=O)N[C@H](C(=O)N(C)[C@H](/C=C(\C)C(=O)N1CCC[C@H]1C(=O)OC)C(C)C)C(C)(C)C)C(C)(C)c1cccc(C)c1 [Example 21, N,β,β,3-Tetramethyl-L-phenylalanyl-N^1-{(1S,2E)-4-[(2S)-2-(methoxycarbonyl)pyrrolidin-1-yl]-1-isopropyl-3-methyl-4-oxobut-2-enyl}-N^1,3-dimethyl-L-valinamide] | 89% | 6.2 | – | 1.6 | 275 | – | – | – | – | – | –
5 | CN[C@H](C(=O)N[C@H](C(=O)N(C)[C@H](/C=C(\C)C(=O)N1CCC[C@H]1C(=O)O)C(C)C)C(C)(C)C)C(C)(C)c1cccc(Cl)c1 [Example 24, 3-Chloro-N,β,β-trimethyl-L-phenylalanyl-N^1-{(1S,2E)-4-[(2S)-2-carboxypyrrolidin-1yl]-1-isopropyl-3-methyl-4-oxobut-2-enyl}-N^1,3-dimethyl-L-valinamide] | 94% | 180 | 17 | 62 | – | – | – | – | – | – | –
6 | CN[C@H](C(=O)N[C@H](C(=O)N(C)[C@H](/C=C/P(=O)(O)OC)C(C)C)C(C)(C)C)C(C)(C)c1ccccc1 [Example 69, N,β,β-trimethyl-L-phenylalanyl-N^1-{(1S,2E)-3-[hydroxy(methoxy)phosphoryl]-1-isopropylprop-2-enyl}-N^1,3-dimethyl-L-valinamide] | 59% | – | 3 | – | – | 0 | 0 | – | – | – | –
7 | CN[C@H](C(=O)N[C@H](C(=O)N(C)[C@H](/C=C(\C)CO)C(C)C)C(C)(C)C)C(C)(C)c1ccccc1 [Example 81] | 71% | – | – | – | – | – | – | 447 | 1590 | 454 | –
8 | CCOS(=O)(=O)/C(C)=C/[C@H](C(C)C)N(C)C(=O)[C@@H](NC(=O)[C@@H](NC)C(C)(C)c1ccccc1)C(C)(C)C [Example 65, N,β,β-trimethyl-L-phenylalanyl-N^1-[(1S,2E)-3-(ethoxysulfonyl)-1-isopropylbut-2-enyl]-N^1,3-dimethyl-L-valinamide] | 44% | – | 0 | – | – | 1 | 11 | – | – | – | –
9 | CN[C@H](C(=O)N[C@H](C(=O)N(C)[C@H](/C=C(\C)C(=O)O)C(C)C)C(C)(C)C)C12CC3CC(CC(C3)C1)C2 [Example 55, (2E,4S)-4-[{N-[(2S)-2-(1-adamantyl)-2-(methylamino)ethanoyl]-3-methyl-L-valyl}(methyl)amino]-2,5-dimethyl-2-hexenoic acid] | 66% | 646 | 13 | 603 | – | – | – | – | – | – | –
10 | C/C(=C\[C@H](C(C)C)N(C)C(=O)[C@@H](NC(=O)C1N(C)CCSC1(C)C)C(C)(C)C)C(=O)O (stereo partly drawn) [Example 58, (2E,4S)-2,5-dimethyl-4-(methyl{3-methyl-N-[(2,2,4-trimethylthiomorpholin-3-yl)carbonyl]-L-valyl}amino)hex-2-enoic acid] | 89(2) % | 550 | 15 | 427 | – | – | – | – | – | – | –
11 | C/C(=C\[C@H](C(C)C)N(C)C(=O)[C@@H](NC(=O)[C@@H]1CCCN1C)C(C)(C)C)C(=O)O [Example 62, 1-methyl-L-prolyl-N^1-[(1S,2E)-3-carboxy-1-isopropylbut-2-enyl]-N^1,3-dimethyl-L-valinamide] | 65(2) % | – | 10 | 2950 | – | 26 | – | – | – | – | –
12 | CN[C@H](C(=O)N[C@H](C(=O)N(C)[C@H](/C=C(\C)C(=O)N1CCN(Cc2ccccc2)CC1)C(C)C)C(C)(C)C)C(C)(C)c1cc(C)cc(C)c1 [Example 14, N,β,β,3,5-Pentamethyl-L-phenylalanyl-N^1-[(1S,2E)-4-(4-benzylpiperazin-1-yl)-1-isopropyl-3-methyl-4-oxobut-2-enyl]-N^1,3-dimethyl-L-valinamide] | 51(5) % | 135 | – | 45 | 1650 | – | – | – | – | – | –
13 | CN[C@H](C(=O)N[C@H](C(=O)N(C)[C@H](/C=C(\C)C(=O)O)C(C)C)C(C)(C)C)c1ccccc1 [Example 57, (2E,4S)-2,5-dimethyl-4-(methyl{3-methyl-N-[(2S)-2-(methylamino)-2-phenylethanoyl]-L-valyl}amino)-2-hexenoic acid] | 75% | 2610 | 7 | 1760 | – | – | – | – | – | – | –
14 | CCOP(=O)(OCC)/C(C)=C/[C@H](C(C)C)N(C)C(=O)[C@@H](NC(=O)[C@@H](NC)C(C)(C)c1ccccc1)C(C)(C)C [Example 71, N,β,β-trimethyl-L-phenylalanyl-N^1-[(1S,2E)-3-(diethoxyphosphoryl)-1-isopropyl-but-2-enyl]-N^1,3-dimethyl-L-valinamide] | 64% | 1750 | 0 | 1300 | – | – | – | – | – | – | –
15 | CNC(C(=O)NC(C(=O)N(C)C(C=C(C)C(=O)CO)C(C)C)C(C)(C)C)C(C)(C)c1ccccc1 (stereo not shown) [Example 90, N-{1-[(5-Hydroxy-1-isopropyl-3-methyl-4-oxo-pent-2-enyl)-methyl-carbamoyl]-2,2-dimethyl-propyl}-3-methyl-2-methylamino-3-phenyl-butyramide] | – | 68 | – | 43 | 1130 | – | – | – | – | – | 76*** %
16 | CN[C@H](C(=O)N[C@H](C(=O)N(C)[C@H](/C=C(\C)C(=O)N1CCC[C@H]1C(=O)OC)C(C)C)C(C)(C)C)C(C)(C)c1cccc(Cl)c1 [Example 23, 3-Chloro-N,β,β-trimethyl-L-phenylalanyl-N^1-{(1S,2E)-4-[(2S)-2-(methoxycarbonyl)pyrrolidin-1-yl]-1-isopropyl-3-methyl-4-oxobut-2-enyl}-N^1,3-dimethyl-L-valinamide] | 88% | 6.2 | – | 2.5 | 362 | – | – | – | – | – | –
17 | CN[C@H](C(=O)N[C@H](C(=O)N(C)[C@H](/C=C(\C)C(=O)N1CCC[C@H]1C(=O)N1CCC[C@H]1C(=O)NCc1ccccc1)C(C)C)C(C)(C)C)C(C)(C)c1ccc(C)c(C)c1 [Example 10, 1-{(2E,4S)-2,5-Dimethyl-4-[methyl(N,β,β,3,4-pentamethyl-L-phenylalanyl-3-methyl-L-valyl)amino]hex-2-enoyl}-L-prolyl-N-benzyl-L-prolinamide] | 42% | 19.7 | – | 1.5 | 2140 | – | – | – | – | – | –
18 | CN[C@H](C(=O)N[C@H](C(=O)N(C)[C@H](/C=C(\C)C(=O)N1CCC[C@@H]1C(=O)O)C(C)C)C(C)(C)C)C(C)(C)c1ccccc1 [Example 43, N,β,β-trimethyl-L-phenylalanyl-N^1-{(1S,2E)-4-[(2R)-2-carboxypyrrolidin-1-yl]-1-isopropyl-3-methyl-4-oxobut-2-enyl}-N^1,3-dimethyl-L-valinamide] | 91% | 1580 | 0 | 515 | – | – | – | – | – | – | –
19 | CN[C@H](C(=O)N[C@H](C(=O)N(C)[C@H](/C=C(\C)C(=O)N1CCC[C@H]1C(=O)OC)C(C)C)C(C)(C)C)C(C)(C)c1ccc(C)c(C)c1 [Example 17, N,β,β,3,4-Pentamethyl-L-phenylalanyl-N^1-{(1S,2E)-4-[(2S)-2-(methoxycarbonyl)pyrrolidin-1-yl]-1-isopropyl-3-methyl-4-oxobut-2-enyl}-N^1,3-dimethyl-L-valinamide] | 71% | 15 | – | 1.9 | 363 | – | – | – | – | – | –
